The results in this text go back to article PMC7279038, “Antioxidant and Neuroprotective Effects Induced by Cannabidiol and Cannabigerol in Rat CTX-TNA2 Astrocytes and Isolated Cortexes” (International Journal of Molecular Sciences, 2020).

The structures appear in SMILES notation.

Test [1] addresses T1, BChE (butyrylcholinesterase) (Equus caballus, UniProt P81908).
T1 construct: horse serum butyrylcholinesterase, EC 3.1.1.8, Sigma Aldrich S.r.L; purchased Sigma Aldrich S.r.L; host or cells: horse serum
The experiment in a line: BChE inhibition, colorimetric cholinesterase assay. Format: biochemical, horse. The note with it: mean ± S.D., n = 3.

Test [2] in a line: DPPH scavenging ability test. The settings on record: mean ± S.D., n = 3. The protocol:
For the 1,1-diphenyl-2-picrylhydrazyl (DPPH) radical scavenging assay, sample solution was added to 4 mL of a 0.004% methanol solution of DPPH. The sample absorbance was read at 517 nm after a 30 min incubation at room temperature in the dark. DPPH radical scavenging activity was expressed as IC50 values.

Test [3] is described as follows: Cupric reducing antioxidant capacity (CUPRAC). The note with it: mean ± S.D., n = 3. The protocol:
For the cupric ion reducing activity (CUPRAC) activity assay, sample solution was added to premixed reaction mixture containing CuCl2 (1 mL, 10 mM), neocuproine (1 mL, 7.5 mM) and NH4Ac buffer (1 mL, 1 M, pH 7.0). Similarly, a blank was prepared by adding sample solution (0.5 mL) to premixed reaction mixture […] without CuCl2. Then, the sample and blank absorbances were read at 450 nm after a 30 min incubation at room temperature. The absorbance of the blank was subtracted from that of the sample. CUPRAC activity was expressed as IC50 values.

The next test relates to cytochrome C (Cyt C). The experiment in a line: Western blotting analysis of cytochrome C. Format: cell-based, rat. The settings on record: CTX-TNA2 challenged with H2O2, 24 h; 1000 nM CBD, 1 nM CBG. How it is done:
[…] The stock solutions were diluted in cell medium to the point that the concentration of DMSO in the samples was less than 0.0003%. Therefore, the addition of DMSO to the control samples was not necessary.
The western blowing analysis of Bax and Cyt C was carried out as previously reported. Specifically, CTX-TNA2 lysates (20 µg) were boiled fof 5 min in sample buffer, made of tris-HCl pH 6.8, glycerol, 2-mercaptoethanol, SDS and bromophenol blue. They were then electrophoresed and transferred to nitrocellulose membranes. […] Immunoreactive bands were identified using the ECL detection system (Euroclone, Pero, Milano, Italy) and analyzed by densitometry. Densitometric values were quantified by the CHEMIDOC XRS system and expressed as Integrated Optical Intensity using the QuantiOne 1-D analysis software (Bio-rad Laboratories, Richmond, CA, USA). […] Results are expressed as the mean ± SD.
Background: A western blot detects proteins with antibodies after separation by electrophoresis.

The subject of test [4] is isolated rat prefrontal cortex, nitrite. The experiment in a line: H2O2-induced nitrite level in isolated cortexes (Griess assay). The note with it: hydrogen peroxide 300 µM; for inhibition of H2O2-induced increase in nitrite level: 1–1000 nM. The protocol:
Sprague–Dawley rats (200–250 g) were sacrificed by CO2 inhalation and isolated prefrontal cortex specimens were immediately explanted and exposed to 300 µM H2O2 and different concentrations of CBD (1–1000 nM) and CBG (1–1000 nM) for one hour, at 37 °C. The nitrite concentration in the resuspension buffer was determined by colorimetric Griess assay. Specifically, cortex specimens were homogenized for 2 min with Potter–Elvehjem homogenizer in 2 mL DMEM buffer. The homogenate was centrifuged at 4500 g for 10 min and nitrite production was determined in the supernatant fraction by mixing 50 µL of the assay buffer with 50 µL of Griess reagent (1.5% sulfanilamide in 1M HCl plus 0.15% N-(1-naphthyl) ethylenediamine dihydrochloride in distilled water, v/v). After 10 min incubation at room temperature, the absorbance at 540 nm was determined and nitrite concentrations were calculated from a sodium nitrite standard curve. All measurements were performed in triplicate.
(In general: Griess reagent forms a coloured azo dye with nitrite.)

Test [5] has as its system isolated rat cortexes, kynurenic acid (KA). The experiment in a line: K+ 60 mM neurotoxicity paradigm, kynurenic acid level. The note with it: for effect on K+ 60 mM-induced reduction in kynurenic acid (KA) level: CBD 1000 nM, CBG 1 nM. How it is done: Sprague–Dawley rats (200–250 g) were sacrificed by CO2 inhalation (Italian Health Ministry authorization N. F4738.N.XTQ, delivered on 11th November 2018) and isolated prefrontal cortex specimens were immediately explanted and incubated in thermostatic shaking bath at 37 °C for 1 h (incubation period), in Krebs–Ringer buffer at the following K^+ concentrations:
Cortexes were stimulated with CBD (1000 nM) and […]. Afterwards, specimens were homogenized in perchloric acid solution (0.05 M) for the extraction and quantification of nitrites, via the aforementioned colorimetric Griess assay, and serotonin (5-HT), 5-hydroxyindoleacetic (5HIIA),3-hydroxykinurenine (3-HK) and kinurenic acid (KA) (ng/mg wet tissue) via high performance liquid chromatography analysis. Additionally, an untargeted proteomic analysis was carried out on the cortex homogenate. The analytical protocols for 5-HT, 5HIIA, 3-HK, KA and protein level determinations are described below. The analyses were conducted in triplicate and in independent facilities with blind modality.
The KA quantitative determination was performed by using a liquid chromatograph (MOD. 1525, Waters Corporation, Milford MA, USA) equipped with a fluorimetric detector (MOD. 2475, Waters Corporation), a C18 reversed-phase column (AcclaimTM 120, 3 µm, 2.1 × 100 mm, Dionex Corporation, Sunnyvale, CA, USA), and an online degasser (Biotech 4-CH degasi compact, LabService, Anzola Emilia, Italy). The separation was conducted in isocratic conditions and the mobile phase consisted of 250 mM zinc acetate, 50 mM sodium acetate, and 3% acetonitrile (pH adjusted to 6.2 with glacial acetic acid), using a flow rate of 1.0 mL/min. In the eluate, the KA was identified and measured fluorimetrically (excitation: 344 nm; emission: 398 nm).

T1 sequence (P81908 whole entry): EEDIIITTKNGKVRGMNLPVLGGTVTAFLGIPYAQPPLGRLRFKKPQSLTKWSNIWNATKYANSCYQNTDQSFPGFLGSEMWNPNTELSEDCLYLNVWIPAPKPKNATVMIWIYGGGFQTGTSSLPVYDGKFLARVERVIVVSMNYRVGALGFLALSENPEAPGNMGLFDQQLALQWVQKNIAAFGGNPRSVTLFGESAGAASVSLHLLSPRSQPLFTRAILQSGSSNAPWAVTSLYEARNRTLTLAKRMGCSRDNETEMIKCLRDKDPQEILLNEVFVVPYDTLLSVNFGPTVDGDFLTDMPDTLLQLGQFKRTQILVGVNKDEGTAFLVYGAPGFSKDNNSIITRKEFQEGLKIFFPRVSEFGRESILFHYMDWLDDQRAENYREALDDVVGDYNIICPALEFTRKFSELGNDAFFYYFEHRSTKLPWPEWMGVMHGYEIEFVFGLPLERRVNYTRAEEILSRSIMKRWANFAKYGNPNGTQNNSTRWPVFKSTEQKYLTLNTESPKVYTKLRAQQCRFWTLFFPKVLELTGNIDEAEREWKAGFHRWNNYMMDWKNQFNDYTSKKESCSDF

As for `CCCCCc1cc(O)c(C/C=C(\C)CCC=C(C)C)c(O)c1` [CBG, cannabigerol], the results for the half-maximal inhibitory concentration (IC50) in test [1], in test [2] and in test [3] were 1.48 ± 0.11 mM, 1.95 ± 0.01 mM and 590 ± 10 µM, respectively. Besides, the “Cyt C expression” value with cytochrome C (Cyt C) is “effect on Bax only”. Moreover, the “inhibition of H2O2-induced increase in nitrite level” value in test [4] is given as “significant at the two lowest tested concentrations only”. Also, in test [4] (tested 1–1000 nM), the “concentration of maximal inhibition of nitrite production” value is 1 nM. Also, the “effect on K+ 60 mM-induced reduction in kynurenic acid (KA) level” value in test [5] is “completely ineffective”. Further, in test [5] (basal conditions only), the KA level entry was “increase KA levels”.

For the molecule `C=C(C)[C@@H]1CCC(C)=C[C@H]1c1c(O)cc(CCCCC)cc1O` [CBD, Cannabidiol], the IC50 in test [1] was 1.88 ± 0.11 mM; in test [2] it was 1.87 ± 0.04 mM; in test [3], 940 ± 10 µM. In the test on cytochrome C (Cyt C), the “Cyt C expression” value is listed as “decrease the Cyt C levels in comparison to H2O2 sample”. Also, the “inhibition of H2O2-induced increase in nitrite level” value in test [4] is reported as “inhibit such an increase at all the tested concentrations”. Also, the “effect on K+ 60 mM-induced reduction in kynurenic acid (KA) level” value in test [5] is “successful in blunting”.

As usually defined, the IC50 is the concentration that inhibits the measured activity by half. High values mean weaker potency in that assay, low ones greater potency in that assay.
